According to patent US6790971B1, “19-Nor-steroids” (Aventis Pharma S.A., priority 1989, dated 2004):

How the values were obtained:
[1] = target: T1, Estrogenic Receptor of Mouse Uterus (Mus musculus, UniProt P19785); assay: Relative affinity of the bond, estrogen receptor (tritiated estradiol displacement); type: binding; details: for affinity for the estrogen receptors: at the second time (incubation); for Relative affinity of the bond (RAB), Oestrogen, 2 H: incubation 2 H at 0° C.; for Relative affinity of the bond (RAB), Oestrogen, 2 H / Relative affinity of the bond (RAB), Oestrogen, 6 H / Relative affinity of the bond (RAB), Oestrogen Receptors, 5 Hrs / Relative affinity of the bond (RAB), Oestrogen Receptors, 2 Hrs: RAB=100(CH)/(CX); for Relative affinity of the bond (RAB), Oestrogen, 6 H: incubation 6 H (second time); for Relative affinity of the bond (RAB), Oestrogen Receptors, 5 Hrs: incubation time 5 Hrs; for Relative affinity of the bond (RAB), Oestrogen Receptors, 5 Hrs / Relative affinity of the bond (RAB), Oestrogen Receptors, 2 Hrs: second part of the table; for Relative affinity of the bond (RAB), Oestrogen Receptors, 2 Hrs: incubation time 2 Hrs
T1 construct: their uteri were removed, then homogenized at 0° C; from tissue; host or cells: uterine cytosol (105,000 g supernatant) of immature female mice
T1 sequence (P19785 1-599): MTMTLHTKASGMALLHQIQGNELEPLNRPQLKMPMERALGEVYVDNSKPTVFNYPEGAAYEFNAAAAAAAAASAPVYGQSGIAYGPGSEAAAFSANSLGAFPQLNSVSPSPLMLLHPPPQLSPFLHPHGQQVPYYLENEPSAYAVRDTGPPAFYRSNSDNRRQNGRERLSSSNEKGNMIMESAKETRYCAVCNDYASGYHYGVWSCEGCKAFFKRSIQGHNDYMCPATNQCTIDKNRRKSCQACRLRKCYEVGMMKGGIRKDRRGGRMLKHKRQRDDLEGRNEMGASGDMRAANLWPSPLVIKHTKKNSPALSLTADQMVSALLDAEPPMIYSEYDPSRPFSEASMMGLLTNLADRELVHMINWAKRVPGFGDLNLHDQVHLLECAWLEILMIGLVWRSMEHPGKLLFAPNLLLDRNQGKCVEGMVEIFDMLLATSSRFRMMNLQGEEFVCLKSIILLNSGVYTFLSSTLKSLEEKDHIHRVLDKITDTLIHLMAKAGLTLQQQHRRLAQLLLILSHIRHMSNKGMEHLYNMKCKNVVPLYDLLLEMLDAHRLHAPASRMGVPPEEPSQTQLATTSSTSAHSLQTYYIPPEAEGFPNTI
Method: Estrogenic Receptor of Mouse Uterus:
Impuberal female mice aged from 18 to 21 days were killed and their uteri were removed, then homogenized at 0° C. with the aid of a Potter teflon-glass in a TS buffered solution (10 mM Tris, 0.25 M saccharose, HCL pH 7.4) (1 g of tissue for 25 ml of TS). The homogenate was ultracentrifuged (105,000 g×90 min) at 0° C. and aliquots of the supernatant were incubated at 0° C. or at 25° C. for a time (t) with a constant concentration (T) of tritiated estradiol in the presence of increasing concentrations (0-1000×10^−9 M) either of cold estradiol, or of the cold product to be tested. The concentration (B) of bound tritiated estradiol was measured in each incubate by the technique of adsorption on dextran carbon.
Calculation of the Relative Affinty of the Bond
The calculation of the Relative Affinity of the Bond (RAB) was identical for all the receptors. The following 2 curves were traced; the percentage of the bound tritiated hormone [formula]
was a function of the logarithm of the concentration of the cold reference hormone and [formula]
as a function of the logarithm of the concentration of the cold product tested.
One determined the straight line of the equation [formula]
The intersections of the straight line I50 and of the curves make it possible to evaluate the concentrations of the cold reference hormone (CH) and of the tested cold product (CX) which inhibit to an extend of 50% the binding of the tritiated hormone upon the receptor. The relative affinity of the bond (RAB) of the tested product is determined by the equation

[2] = test system: MCF-7 mammary tumoral cells; assay: Anti-proliferative activity upon the growth of MCF-7 cells (DNA measurement with DABA); type: cell-based; details: 6 days, inhibition of the increase of DNA, read-out: concentration which inhibited the growth of MCF7 to an extent of 50% (IC50)
Method: B. Anti-proliferative activity of the products of the invention upon the growth of MCF-7 mammary tumoral cells.
The MCF-7 strains were kept under culture in FCS(1) medium at 37° C. under a humid atmosphere containing 5% CO2 and the cells at subconfluence were harvested by trypsination (0.05% trypsine, 0.02% EDTA), then rinsed by gentle centrifugation. A sample of the cells in suspension was counted on Malassez cell.
The cells, resuspended in FCS medium, were seeded at a rate of 30,000 cells per pit in multi-pit plates (24 pits of 2.5 cm^2) and twenty four hours after seeding (DO), the product to be tested was added to the medium in ethanolic solution (final concentration in ethanol: 0.1%), at a concentration of 10^−12 to 10^−6 M, the control pits receiving the same concentration of ethanol. The media were renewed every 48 hours and at the end of the experiment (D6), the medium was sucked off and the cells were immediately fixed with 150 microliters of methanol to estimate the DNA. The anti-proliferative activity of the products was evaluated by their capacity to inhibit the increase of DNA.
The DNA was measured by a fluorimetric method employing DABA (3,5-diaminobenzoic acid) (2): 150 microliters of DABA were added to each of the pits and the plates were then incubated for 45 minutes at 56° C., then 2 ml of 1 N HCl were added. The fluorescence was measured with the aid of a fluorimeter (length of the exiting wave: 408 nm, length of the emitting wave: 501 nm). The quantity of DNA per pit was evaluated with reference to a standard scale obtained by treating a standard DNA from calf thymus under the same conditions.
The concentration in nM which inhibited the growth of MCF7 to an extent of 50% (IC50) was determined in the manner indicated below:
(1) The fetal calf serum (FCS) culture medium was prepared as follows: MEM medium (minimal essential medium) to which were added:
Non-essential amino acids (GIBCO),
Peni-strepto (100 U/ml penicillin, 0.1 mg/ml streptomycin),
Fetal calf serum containing no steroids (10% final concentration).
(2) Puzas and Goodman, Analytical Biochemistry, Vol. 86, pp. 50, 1978.

Compound	IC50 [2] [pM]	Relative affinity of the bond (RAB), Oestrogen, 2 H [1]	Relative affinity of the bond (RAB), Oestrogen, 6 H [1]	Relative affinity of the bond (RAB), Oestrogen Receptors, 5 Hrs [1]	Relative affinity of the bond (RAB), Oestrogen Receptors, 2 Hrs [1]	affinity for the estrogen receptors [1]
CCCCN(C)C(=O)CCCCCCCc1ccc([C@H]2C[C@]3(C)[C@@H](O)CC[C@H]3[C@@H]3CCc4cc(O)ccc4[C@H]32)cc1 [Example 8, N-Butyl-4-[3,17β-dihydroxy-Δ^1,3,5(10)-estratrien-11β-yl]-N-methyl benzene octanamide]	40	–	–	–	–	marked affinity
CCCCN(C)C(=O)COCCCCCC#Cc1ccc([C@H]2C[C@]3(C)[C@@H](O)CC[C@H]3[C@@H]3CCc4cc(O)ccc4[C@H]32)cc1 [Example 37, 2-((7-(4-(3,17β-dihydroxy-Δ^1,3,5(10)-estratrien-11β-yl)-phenyl)-6-heptynyl.)-oxy)-N-butyl-N-methyl Acetamide]	30	0.6	28	–	–	marked affinity
CCCCN(C)C(=O)CCCCCCCOc1ccc([C@H]2C[C@]3(C)[C@@H](O)CC[C@H]3[C@@H]3CCc4cc(O)ccc4[C@H]32)cc1 [Example 46, N-butyl-8-[4-(3,17β-dihydroxy-Δ^1,3,5,(10)-estratrien-11β-yl)-phenoxy]-N-methyl Octanamide]	6	0.3	65	–	–	marked affinity
C#C[C@]1(O)CC[C@H]2[C@@H]3CCc4cc(O)ccc4[C@H]3[C@@H](CCCCCCCCCCC(=O)N(C)C(C)C)C[C@@]21C [Example 55, 3,17β-Dihydroxy-N-Methyl-N-Isopropyl-19-Nor-17α-Δ^1,3,5(10)-Pregnatrien-20-Yn-118-Undecanamide]	10	1.2	45	–	–	marked affinity
CC(C)N(C)C(=O)COCCCCCCCC[C@H]1C[C@]2(C)[C@@H](O)CC[C@H]2[C@@H]2CCc3cc(O)ccc3[C@@H]12 [Example 71, [[8(3,17beta-dihydroxy-estra-1,3,5(10)-trien-11beta-yl)-octyl]-oxy]-N-methyl-N-(1-methylethyl) acetamide]	100	0.6	50	–	–	marked affinity
CCCCN(C)C(=S)COCCCCCOc1ccc([C@H]2C[C@]3(C)[C@@H](O)CC[C@H]3[C@@H]3CCc4cc(O)ccc4[C@H]32)cc1 [Example 78, N-butyl-[5-[4-(3,17β-dihydroxy-δ^1,3,5(10)-estratrien-11β-yl)-phenoxy]-pentyloxy]-N-methyl-ethanethioamide]	30	–	–	20	–	–
CCCCN(C)C(=S)CCCCCCCOc1ccc([C@H]2C[C@]3(C)[C@@H](O)CC[C@H]3[C@@H]3CCc4cc(O)ccc4[C@H]32)cc1 [Example 79, N-butyl-8-(4-(3,17β-dihydroxy-δ^1,3,5(10)-estratrien-11β-yl)-phenoxy)-N-methyloctanethioamide]	35	–	–	16	–	–
CN(CC(F)(F)C(F)(F)C(F)(F)F)C(=O)CCCCCCCOc1ccc([C@H]2C[C@]3(C)[C@@H](O)CC[C@H]3[C@@H]3CCc4cc(O)ccc4[C@H]32)cc1 [Example 82, 8-(4-(δ^1,3,5(10)-estratrien-3,17β-diol-11β-yl)-phenoxy)-N-(2,2,3,3,4,4,4-heptafluorobutyl)-N-methyl-octanamide]	20	–	–	23	0	–
CCCCN(C)C(=O)CSCCCCCOc1ccc([C@H]2C[C@]3(C)[C@@H](OC(=O)CCC(=O)O)CC[C@H]3[C@@H]3CCc4cc(O)ccc4[C@H]32)cc1 [Example 96, Monobutanedioate of 11β-(4-(5-((2-(Butyl-Methylamino)-2-Oxoethyl)-Thio)-Pentyloxy)-Phenyl)δ^1,3,5(10)-Estratrien-3-ol-17 β-yl]	–	–	–	16	–	–

Now from value to compound, other results behind:

IC50 [2] [pM]	Relative affinity of the bond (RAB), Oestrogen, 2 H [1]	Relative affinity of the bond (RAB), Oestrogen, 6 H [1]	Relative affinity of the bond (RAB), Oestrogen Receptors, 5 Hrs [1]	Relative affinity of the bond (RAB), Oestrogen Receptors, 2 Hrs [1]	Compound	affinity for the estrogen receptors [1]
40	0.13	12	–	–	CCCCN(C)C(=O)CCCCCC#Cc1ccc([C@H]2C[C@]3(C)[C@@H](O)CC[C@H]3[C@@H]3CCc4cc(O)ccc4[C@H]32)cc1 [Example 35]	–
2	4.0	3.0	–	–	CCCCN(C)C(=O)COCCCCCOc1ccc([C@H]2C[C@]3(C)[C@@H](O)CC[C@H]3[C@@H]3CCc4cc(O)ccc4[C@H]32)cc1 [Example 43, N-butyl-[5-[4-(3,17β-dihydroxy-Δ^1,3,5(10)-estratrien-11β-yl)-phenoxy]-pentyloxy]-N-methyl acetamide]	–
7	–	–	29	3.3	CCCCN(C)C(=O)COCCCCCCOc1ccc([C@H]2C[C@]3(C)[C@@H](O)CC[C@H]3[C@@H]3CCc4cc(O)ccc4[C@H]32)cc1 [Example 83]	–
9	–	–	11.7	–	CCCCN(C)C(=O)CSCCCCCc1ccc([C@H]2C[C@]3(C)[C@@H](O)CC[C@H]3[C@@H]3CCc4cc(O)ccc4[C@H]32)cc1 [Example 86]	–
15	–	–	47	2.8	CCCCN(C)C(=O)CCCCCCCSc1ccc([C@H]2C[C@]3(C)[C@@H](O)CC[C@H]3[C@@H]3CCc4cc(O)ccc4[C@H]32)cc1 [Example 92, N-Butyl-8-(4-(δ^1,3,5(10)-Estratrien-3,17β-Diol-11 β-yl)-Phenyl-Thio)-N-Methyl-Octanamide]	marked affinity
